{"source": "paper PMC10033419", "about": "“Blocking NS3–NS4B interaction inhibits dengue virus in non-human primates” (Nature, 2023)", "key": {"[1]": {"system": "DENV-2 RL strain", "assay": "In vivo kinetics study, low viral inoculum (10^2 PFU)", "conditions": "for In vivo kinetics - viral RNA, Mean of Log10: group mean"}, "[2]": {"system": "DENV-2/16681/eGFP", "assay": "microbe, parasite or virus in culture", "assay_type": "cell-based", "conditions": "Dengue virus"}, "[3]": {"system": "JEV CNS769-Laos 2009", "assay": "microbe, parasite or virus in culture", "assay_type": "cell-based", "conditions": "Japanese encephalitis virus, Vero C1008"}, "[4]": {"system": "DENV-2 RL strain", "assay": "Antiviral assay, viral RNA RT-qPCR, C6/36 cells", "assay_type": "cell-based"}, "[5]": {"assay": "Toxicity by high-content imaging", "assay_type": "cell-based, Aedes albopictus", "conditions": "Aedes albopictus, C6/36 cells", "procedure": "(§1) A potential toxic effect on host cells was tested in parallel, while omitting virus infection, using the MTS/PMS method (Promega) for Vero cells, or by high-content imaging for C6/36 cells, as described previously. […] RT–qPCR data were analysed using the QuantStudio 12K Flex software (v.1.2.3) or SDS v.1.2 Applied Biosystems software. Inhibition values for antiviral molecules were plotted using KaleidaGraph plotting software (v.4.03, Synergy Software)."}, "[6]": {"system": "C6/36 cells", "assay": "Toxicity by high-content imaging", "assay_type": "cell-based, Aedes albopictus", "conditions": "C3/36 cells; read-out: CC50, individual values", "procedure": "as §1"}, "[7]": {"system": "INF-A Taiwan/1/86", "assay": "microbe, parasite or virus in culture", "assay_type": "cell-based", "conditions": "Influenza A virus, MDCK"}, "[8]": {"conditions": "JNJ-1802 0.2 mg/kg/d, day 6 p.i., individual mice, 0.2 mg/kg/day"}, "[9]": {"conditions": "JNJ-1802 0.2 mg/kg/d, day 8 p.i., individual mice, 0.2 mg/kg/day"}, "[10]": {"conditions": "JNJ-1802 0.2 mg/kg/d, day 11 p.i., individual mice"}, "[11]": {"conditions": "JNJ-1802 2 mg/kg/d, day 5 p.i., individual mice"}, "[12]": {"conditions": "JNJ-1802 2 mg/kg/d, day 6 p.i., individual mice"}, "[13]": {"conditions": "JNJ-1802 2 mg/kg/d, day 8 p.i., individual mice"}, "[14]": {"conditions": "JNJ-1802 2 mg/kg/d, day 11 p.i., individual mice, 2 mg/kg/day"}, "[15]": {"conditions": "JNJ-1802 20 mg/kg/d, day 5 p.i., individual mice"}, "[16]": {"conditions": "JNJ-1802 20 mg/kg/d, day 6 p.i., individual mice"}, "[17]": {"conditions": "JNJ-1802 20 mg/kg/d, day 8 p.i., individual mice"}, "[18]": {"conditions": "JNJ-1802 20 mg/kg/d, day 11 p.i., individual mice"}}, "note": "Where “and” joins values, the source holds several entries; their conditions need not be identical. Equal values may be shown once. Read-outs that look alike come from different tables or passages of the source.", "data": [{"smiles": "COc1cc(N[C@H](C(=O)c2c[nH]c3ccc(OC(F)(F)F)cc23)c2ccc(Cl)cc2OC)cc(S(C)(=O)=O)c1", "note": "[JNJ-1802]", "values": [{"measurement": "In vivo kinetics - viral RNA, Copies/ml", "setting": "[1]; [8]", "result": "4.46E+04 Copies/ml and 2.63E+04 Copies/ml and 2.31E+04 Copies/ml and 1.84E+05 Copies/ml and 8.21E+04 Copies/ml and 8.40E+03 Copies/ml"}, {"measurement": "In vivo kinetics - viral RNA, Log10", "setting": "[1]; [8]", "result": "4.6493 Log10 and 4.4198 Log10 and 4.8549 Log10 and 5.1560 Log10 and 4.3639 Log10 and 5.2645 Log10 and 4.9143 Log10 and 3.9243 Log10"}, {"measurement": "In vivo kinetics - viral RNA, Mean of Log10", "setting": "[1]; JNJ-1802 0.2 mg/kg/d, day 8 p.i.", "result": 3.63, "unit": "Log10"}, {"measurement": "In vivo kinetics - viral RNA, Copies/ml", "setting": "[1]; [9]", "result": "3.93E+02 Copies/ml and 4.25E+05 Copies/ml and 5.92E+05 Copies/ml"}, {"measurement": "In vivo kinetics - viral RNA, Log10", "setting": "[1]; [9]", "result": "2.5940 Log10 and 5.6283 Log10 and 5.7725 Log10"}, {"measurement": "In vivo kinetics - viral RNA, Mean of Log10", "setting": "[1]; JNJ-1802 0.2 mg/kg/d, day 11 p.i.", "result": 2.59, "unit": "Log10"}, {"measurement": "In vivo kinetics - viral RNA, Copies/ml", "setting": "[1]; [10]", "result": "3.93E+02", "unit": "Copies/ml"}, {"measurement": "In vivo kinetics - viral RNA, Log10", "setting": "[1]; [10]", "result": 2.5940, "unit": "Log10"}, {"measurement": "In vivo kinetics - viral RNA, Copies/ml", "setting": "[1]; [11]", "result": "3.93E+02", "unit": "Copies/ml"}, {"measurement": "In vivo kinetics - viral RNA, Log10", "setting": "[1]; [11]", "result": 2.5940, "unit": "Log10"}, {"measurement": "In vivo kinetics - viral RNA, Mean of Log10", "setting": "[1]; JNJ-1802 2 mg/kg/d, day 6 p.i.", "result": 2.59, "unit": "Log10"}, {"measurement": "In vivo kinetics - viral RNA, Copies/ml", "setting": "[1]; [12]", "result": "3.93E+02", "unit": "Copies/ml"}, {"measurement": "In vivo kinetics - viral RNA, Log10", "setting": "[1]; [12]", "result": 2.5940, "unit": "Log10"}, {"measurement": "In vivo kinetics - viral RNA, Mean of Log10", "setting": "[1]; JNJ-1802 2 mg/kg/d, day 8 p.i.", "result": 2.59, "unit": "Log10"}, {"measurement": "In vivo kinetics - viral RNA, Copies/ml", "setting": "[1]; [13]", "result": "3.93E+02", "unit": "Copies/ml"}, {"measurement": "In vivo kinetics - viral RNA, Log10", "setting": "[1]; [13]", "result": 2.5940, "unit": "Log10"}, {"measurement": "In vivo kinetics - viral RNA, Mean of Log10", "setting": "[1]; JNJ-1802 2 mg/kg/d, day 11 p.i.", "result": 2.74, "unit": "Log10"}, {"measurement": "In vivo kinetics - viral RNA, Copies/ml", "setting": "[1]; [14]", "result": "3.93E+02 Copies/ml and 3.01E+03 Copies/ml"}, {"measurement": "In vivo kinetics - viral RNA, Log10", "setting": "[1]; [14]", "result": "2.5940 Log10 and 3.4790 Log10"}, {"measurement": "In vivo kinetics - viral RNA, Copies/ml", "setting": "[1]; [15]", "result": "3.93E+02", "unit": "Copies/ml"}, {"measurement": "In vivo kinetics - viral RNA, Log10", "setting": "[1]; [15]", "result": 2.5940, "unit": "Log10"}, {"measurement": "In vivo kinetics - viral RNA, Mean of Log10", "setting": "[1]; JNJ-1802 20 mg/kg/d, day 6 p.i.", "result": 2.59, "unit": "Log10"}, {"measurement": "In vivo kinetics - viral RNA, Copies/ml", "setting": "[1]; [16]", "result": "3.93E+02", "unit": "Copies/ml"}, {"measurement": "In vivo kinetics - viral RNA, Log10", "setting": "[1]; [16]", "result": 2.5940, "unit": "Log10"}, {"measurement": "In vivo kinetics - viral RNA, Mean of Log10", "setting": "[1]; JNJ-1802 20 mg/kg/d, day 8 p.i.", "result": 2.59, "unit": "Log10"}, {"measurement": "In vivo kinetics - viral RNA, Copies/ml", "setting": "[1]; [17]", "result": "3.93E+02", "unit": "Copies/ml"}, {"measurement": "In vivo kinetics - viral RNA, Log10", "setting": "[1]; [17]", "result": 2.5940, "unit": "Log10"}, {"measurement": "In vivo kinetics - viral RNA, Mean of Log10", "setting": "[1]; JNJ-1802 20 mg/kg/d, day 11 p.i.", "result": 2.59, "unit": "Log10"}, {"measurement": "In vivo kinetics - viral RNA, Copies/ml", "setting": "[1]; [18]", "result": "3.93E+02", "unit": "Copies/ml"}, {"measurement": "In vivo kinetics - viral RNA, Log10", "setting": "[1]; [18]", "result": 2.5940, "unit": "Log10"}, {"measurement": "In vivo kinetics, Mean of Log10", "setting": "[1]; mouse, in vivo", "result": 2.78, "unit": "Log10"}, {"measurement": "In vivo kinetics - viral RNA, Copies/ml", "setting": "[1]; mouse, in vivo, 0.2 mg/kg/day", "result": "7.16E+04 Copies/ml and 1.43E+05 Copies/ml"}, {"measurement": "EC90", "setting": "[2]; DENV2, Huh-7, Huh-7, read-out: EC90", "result": "0.53 ± 0.31", "unit": "nM"}, {"measurement": "EC90", "setting": "[2]; DENV2, Huh-7, read-out: EC90 Mean", "result": 0.533, "unit": "nM"}, {"measurement": "EC50", "setting": "[3]", "result": 590, "unit": "nM"}, {"measurement": "EC50", "setting": "[4]; C3/36 cells, DENV-2RL, EXP 1 and EXP 2, read-out: EC50, individual values", "result": "1.34 nM and 1.19 nM and 1.38 nM"}, {"measurement": "EC90", "setting": "[4]; C3/36 cells, DENV-2RL, EXP 1 and EXP 2, read-out: EC90, individual values", "result": "7.33 nM and 7.51 nM and 5.46 nM"}, {"measurement": "EC50", "setting": "[4]; Dengue virus, DENV2, C6/36, C3/36 cells, DENV-2RL, EXP 1 and EXP 2, read-out: EC50, individual values", "result": 1.05, "unit": "nM"}, {"measurement": "EC90", "setting": "[4]; Dengue virus, DENV2, C6/36, C3/36 cells, DENV-2RL, EXP 1 and EXP 2, read-out: EC90, individual values", "result": 5.52, "unit": "nM"}, {"measurement": "EC50", "setting": "[4]; Dengue virus, DENV2, C6/36, C3/36 cells, DENV-2RL, mean, read-out: EC50 Mean", "result": 1.2, "unit": "nM"}, {"measurement": "EC90", "setting": "[4]; Dengue virus, DENV2, C6/36, C3/36 cells, DENV-2RL, mean, read-out: EC90 Mean", "result": 6.46, "unit": "nM"}, {"measurement": "EC50", "setting": "[4]; Dengue virus, DENV2, C6/36, C6/36, read-out: EC50", "result": "1.24 ± 0.14", "unit": "nM"}, {"measurement": "EC90", "setting": "[4]; Dengue virus, DENV2, C6/36, C6/36, read-out: EC90", "result": "6.5 ± 1", "unit": "nM"}, {"measurement": "CC50", "setting": "[5]; C3/36 cells, mean, read-out: CC50 Mean", "result": 14400, "unit": "nM"}, {"measurement": "CC50", "setting": "[5]; C3/36 cells, read-out: CC50, individual values", "result": 13700, "unit": "nM"}, {"measurement": "CC50", "setting": "[5]; C6/36, read-out: CC50", "result": "14400 ± 1100", "unit": "nM"}, {"measurement": "CC50", "setting": "[6]", "result": 15200, "unit": "nM"}, {"measurement": "EC50", "setting": "[7]", "result": "> 2600", "unit": "nM"}, {"measurement": "EC50", "setting": "[7]; read-out: EC50, Mean", "result": "> 25000", "unit": "nM"}, {"measurement": "EC90", "setting": "[7]; read-out: EC90, Mean", "result": "> 25000", "unit": "nM"}]}]}
